Source: PubChem BioAssay (NCI)
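Interpolation was linear, between the two tested concentrations surrounding the appropriate level; five concentrations were tested over 48 hours in 96-well plates. GI50 marks 50% less growth. TGI: concentration producing complete growth inhibition.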

Columns and labels:
Experiment in all cases: NCI-60 cell line screen, 48 h
[1] = system: SN12C renal
[2] = system: HCT-116 colon
[3] = system: HCT-15 colon
[4] = system: DU-145 prostate
[5] = system: MOLT-4 leukemia
[6] = system: NCI-H522 lung
[7] = system: SF-539 CNS
[8] = system: HOP-62 NSCLC
[9] = system: UACC-62 melanoma
[10] = system: SF-295 CNS
[11] = system: K-562 leukemia
[12] = system: HT29 colon
[13] = system: TK-10 renal
[14] = system: CAKI-1 renal
[15] = system: RPMI-8226 leukemia
[16] = system: 786-0 renal
[17] = system: IGROV1 ovarian
[18] = system: UACC-257 melanoma
[19] = system: SK-MEL-5 melanoma
[20] = system: MCF7 breast
[21] = system: COLO 205 colon
[22] = system: SNB-75 CNS
[23] = system: MDA-MB-435
[24] = system: BT-549 breast
[25] = system: HOP-92 NSCLC
[26] = system: NCI/ADR-RES ovarian
[27] = system: OVCAR-3 ovarian
[28] = system: NCI-H226 lung
[29] = system: ACHN renal
[30] = system: SK-MEL-28 melanoma
[31] = system: HCC-2998 colon
[32] = system: MDA-MB-231 breast
[33] = system: RXF 393 renal
[34] = system: T-47D breast
[35] = system: SW-620 colon
[36] = system: CCRF-CEM leukemia
[37] = system: MALME-3M melanoma
[38] = system: EKVX NSCLC
[39] = system: OVCAR-4 ovarian
[40] = system: KM12 colon
[41] = system: SK-OV-3 ovarian
[42] = system: U251 CNS
[43] = system: OVCAR-8 ovarian
[44] = system: SNB-19 CNS
[45] = system: SF-268 CNS
[46] = system: PC-3 prostate
[47] = system: A549 NSCLC
[48] = system: M14 melanoma
[49] = system: A498 renal
[50] = system: SK-MEL-2 melanoma
[51] = system: OVCAR-5 ovarian
[52] = system: UO-31 renal
[53] = system: HL-60(TB) leukemia
[54] = system: NCI-H460 lung
[55] = system: HS 578T breast

Question: For NC(=O)c1cccc(-n2ccc3cc(NC(=O)Nc4ccc(N5CCOCC5)c(C(F)(F)F)c4)ccc32)n1, which GI50 [1] is on record?
Answer: 2.19 µM

Question: What about the TGI [1] of the same molecule?
Answer: 7.36 µM

Question: What about the GI50 [2] of the same molecule?
Answer: 1.91 µM

Question: And the TGI [2]?
Answer: 8.57 µM

Question: What about the GI50 [3] of the same molecule?
Answer: 1.59 µM

Question: What about the TGI [3] of the same molecule?
Answer: 6.61 µM

Question: And the GI50 [4]?
Answer: 3.01 µM

Question: And the TGI [4]?
Answer: > 100 µM

Question: What about the GI50 [5] of the same molecule?
Answer: 1.65 µM

Question: What about the TGI [5] of the same molecule?
Answer: 9.01 µM

Question: And the GI50 [6]?
Answer: 2.07 µM

Question: What about the TGI [6] of the same molecule?
Answer: 7.82 µM

Question: And the GI50 [7]?
Answer: 0.616 µM

Question: And the TGI [7]?
Answer: 2.79 µM

Question: What about the GI50 [8] of the same molecule?
Answer: 1.5 µM

Question: And the TGI [8]?
Answer: 4.1 µM

Question: What about the GI50 [9] of the same molecule?
Answer: 1.65 µM

Question: What about the TGI [9] of the same molecule?
Answer: 4.14 µM

Question: What about the GI50 [10] of the same molecule?
Answer: 0.419 µM

Question: And the TGI [10]?
Answer: 2.31 µM

Question: What about the GI50 [11] of the same molecule?
Answer: 0.946 µM

Question: And the TGI [11]?
Answer: > 100 µM

Question: And the GI50 [12]?
Answer: 2.34 µM

Question: What about the TGI [12] of the same molecule?
Answer: > 100 µM

Question: What about the GI50 [13] of the same molecule?
Answer: 2.75 µM

Question: And the TGI [13]?
Answer: 8.29 µM

Question: What about the GI50 [14] of the same molecule?
Answer: 1.9 µM

Question: And the TGI [14]?
Answer: 9.41 µM

Question: And the GI50 [15]?
Answer: 0.505 µM

Question: What about the TGI [15] of the same molecule?
Answer: 2.29 µM

Question: What about the GI50 [16] of the same molecule?
Answer: 0.67 µM

Question: And the TGI [16]?
Answer: 40.6 µM

Question: And the GI50 [17]?
Answer: 2.25 µM

Question: What about the TGI [17] of the same molecule?
Answer: 6.94 µM

Question: And the GI50 [18]?
Answer: 2.9 µM

Question: What about the TGI [18] of the same molecule?
Answer: 9.04 µM

Question: What about the GI50 [19] of the same molecule?
Answer: 1.51 µM

Question: What about the TGI [19] of the same molecule?
Answer: 3.47 µM

Question: And the GI50 [20]?
Answer: 0.124 µM

Question: And the TGI [20]?
Answer: 3.16 µM

Question: And the GI50 [21]?
Answer: 2.06 µM

Question: What about the TGI [21] of the same molecule?
Answer: 5.51 µM

Question: And the GI50 [22]?
Answer: 0.69 µM

Question: What about the TGI [22] of the same molecule?
Answer: 4.01 µM

Question: And the GI50 [23]?
Answer: 2.03 µM

Question: And the TGI [23]?
Answer: 7.19 µM

Question: What about the GI50 [24] of the same molecule?
Answer: 1.79 µM

Question: What about the TGI [24] of the same molecule?
Answer: 5.04 µM

Question: What about the GI50 [25] of the same molecule?
Answer: 2.1 µM

Question: What about the TGI [25] of the same molecule?
Answer: 4.82 µM

Question: And the GI50 [26]?
Answer: 2.65 µM

Question: And the TGI [26]?
Answer: 35.4 µM

Question: What about the GI50 [27] of the same molecule?
Answer: 1.99 µM

Question: And the TGI [27]?
Answer: 5.37 µM

Question: And the GI50 [28]?
Answer: 1.74 µM

Question: And the TGI [28]?
Answer: 6.6 µM

Question: And the GI50 [29]?
Answer: 2.7 µM

Question: What about the TGI [29] of the same molecule?
Answer: 8.59 µM

Question: And the GI50 [30]?
Answer: 2.04 µM

Question: And the TGI [30]?
Answer: 8.83 µM

Question: What about the GI50 [31] of the same molecule?
Answer: 3.15 µM

Question: What about the GI50 [32] of the same molecule?
Answer: 2.56 µM

Question: What about the TGI [32] of the same molecule?
Answer: 7.96 µM

Question: What about the GI50 [33] of the same molecule?
Answer: 0.245 µM

Question: What about the TGI [33] of the same molecule?
Answer: 0.743 µM

Question: And the GI50 [34]?
Answer: 0.463 µM

Question: And the TGI [34]?
Answer: 3.02 µM

Question: And the GI50 [35]?
Answer: 2.87 µM

Question: And the TGI [35]?
Answer: > 100 µM

Question: What about the GI50 [36] of the same molecule?
Answer: 0.741 µM

Question: And the TGI [36]?
Answer: 4.74 µM

Question: And the GI50 [37]?
Answer: 1.59 µM

Question: What about the TGI [37] of the same molecule?
Answer: 4.34 µM

Question: And the GI50 [38]?
Answer: 2.9 µM

Question: And the TGI [38]?
Answer: > 100 µM

Question: And the GI50 [39]?
Answer: 2.25 µM

Question: And the TGI [39]?
Answer: 7.09 µM

Question: What about the GI50 [40] of the same molecule?
Answer: 0.397 µM

Question: And the TGI [40]?
Answer: 4.41 µM

Question: What about the GI50 [41] of the same molecule?
Answer: 2.73 µM

Question: And the TGI [41]?
Answer: 8.95 µM

Question: What about the GI50 [42] of the same molecule?
Answer: 1.25 µM

Question: What about the TGI [42] of the same molecule?
Answer: 12.1 µM

Question: What about the GI50 [43] of the same molecule?
Answer: 1.48 µM

Question: And the TGI [43]?
Answer: 8.38 µM

Question: And the GI50 [44]?
Answer: 1.86 µM

Question: What about the TGI [44] of the same molecule?
Answer: 6.55 µM

Question: And the GI50 [45]?
Answer: 2.67 µM

Question: And the TGI [45]?
Answer: 8.94 µM

Question: What about the GI50 [46] of the same molecule?
Answer: 1.67 µM

Question: And the TGI [46]?
Answer: 6.2 µM

Question: What about the GI50 [47] of the same molecule?
Answer: 2.64 µM

Question: What about the TGI [47] of the same molecule?
Answer: > 100 µM

Question: What about the GI50 [48] of the same molecule?
Answer: 2.25 µM

Question: And the TGI [48]?
Answer: 6.91 µM

Question: And the GI50 [49]?
Answer: 2.01 µM

Question: And the TGI [49]?
Answer: 7.32 µM

Question: And the GI50 [50]?
Answer: 2.11 µM

Question: And the TGI [50]?
Answer: 5.09 µM

Question: What about the GI50 [51] of the same molecule?
Answer: 2.95 µM

Question: What about the TGI [51] of the same molecule?
Answer: > 100 µM

Question: And the GI50 [52]?
Answer: 1.84 µM

Question: And the TGI [52]?
Answer: 5.21 µM

Question: And the GI50 [53]?
Answer: 2.05 µM

Question: And the TGI [53]?
Answer: 7.5 µM

Question: And the GI50 [54]?
Answer: 2.22 µM

Question: And the TGI [54]?
Answer: 6.51 µM

Question: What about the GI50 [55] of the same molecule?
Answer: 0.835 µM

Question: And the TGI [55]?
Answer: 4.83 µM
